In US20160008339A1, “PSORALEN DERIVATIVES FOR PREVENTING OR TREATING HEART FAILURE OR CARDIAC HYPERTROPHY” (MAX-DELBRUCK-CENTRUM FUR MOLEKULARE MEDIZIN, priority 2012, published 2016):

Test system: primary neonatal rat cardiomyocytes
Assay: Beat rate of neonatal cardiomyocytes counted by light microscope
Format: cell-based
Settings: for beat rate after PE stimulation: PE 6 h
Procedure: For cultivation of primary neonatal rat cardiomyocytes, hearts of two to three days old rats were obtained and quickly stored on ice in ADS buffer (116.4 mM NaCl, 5.4 mM KC, 5.6 mM dextrose, 10.9 mM NaH2PO4, 405.7 μmol/L MgSO4, 20 mM Hepes, pH 7.3). Under sterile conditions, the hearts were cleaned from blood and vessels, cut into small pieces and transferred into falcon tubes. The ADS buffer was exchanged against an enzyme solution (see table below). Within four cycles each with five ml enzyme solution and an enzyme mix comprising collagenase and pancreatin, isolated cells were released from the tissue (12 min at 37° C. in a water bath with approx. 220 rpm).
The supernatant with the isolated cells was collected, transferred in fetal calf serum (FCS, 2.5 ml on ice) and subsequently centrifugated in FCS (100 g for 3 min at 4° C.). The supernatant of the centrifugation was discarded and the pellet was resuspended in 5 ml cold plating medium. After an additional centrifugation, the pellet was resuspended in 15 ml medium, transferred into a dish and incubated for two hours at 37° C. to allow the settling of the fibroblasts. The cardiomyocytes in the supernatant were counted with a Scepter Handheld Automated Cell Counter and transferred in dishes coated with gelatine. On the following day the medium was changed.
The neonatal cardiomyocytes were seeded in 6-well plates with 1.5×10^6 cell per well. The stimulation with 100 μmol/L phenylephrine (PE) was performed for six or twenty four hours at 37° C. Untreated cells served as control. The effect of compound 31413 on the α-adrenergic stimulation of the cardiomyocytes was determined after incubation with the compound for three hours. To do this, the contraction of the cells was counted within a minute and different conditions were compared.
Isolated neonatal cardiomyocytes were used to investigate the relation between AKAP-Lbc induced RhoA activation and the contractility of the heart. After a chronic stimulation of the α1-adreno receptors (AR) with the specific agonist PE for six hours, the beats of the cardiomyocytes were counted over a period of 15 s and a beat rate per minute (bpm) was calculated. An increase of the beat rate of the cardiomyocytes from 100 bpm to 160 beats per minute could be observed. […] The beat rate of neonatal cardiomyocytes was counted with help of a light microscope.

Structure (SMILES): COc1ccc(-c2coc3cc4oc(=O)c(C)c(C)c4cc23)cc1 [Compound 31413, 3-(4-methoxyphenyl)-5,6-dimethyl-furo[3,2-g]chromen-7-one]
- beat rate after PE stimulation (2.5 μmol/L compound): normalization of the beat rate
- beat rate after PE stimulation (25 μmol/L compound): arrest
- beat rate after PE stimulation (50 μmol/L compound): arrest
- phenylephrine/alpha-adrenoceptor-induced increase in cardiac myocyte beating frequency (at 2.5, 10, 25 and 50 μmol/L): prevents
